Assay results reported in PubChem BioAssay (NCI).
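Results reflect a 48-hour exposure of cells in 96-well plates to compound at five concentrations. GI50 is the concentration that inhibits growth by half. TGI is the concentration that stops growth completely.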

These compounds were tested on UACC-62 melanoma (assay: DTP human tumour cell line panel, 48 h).

SMILES	GI50 [µM]	TGI [µM]
COc1cc2c(cc1OCCCCC(=O)Nc1cc3c4ccccc4ccc3c3ccccc13)N=C[C@@H]1CCCN1C2=O	0.658	8.24
COc1c2c(cc3c1OCO3)[C@]13C=C[C@H](OC)C[C@H]1N(C2)CC3O (stereo not given in full)		> 100
Cc1[nH]c(=O)nc2[nH][nH]c(=O)c12		> 100
C=C1C(=O)O[C@H]2[C@H]1CC/C(COC(=O)NCCCCNC(=O)OC/C1=C/CC[C@@]3(C)O[C@H]3[C@H]3OC(=O)C(=C)[C@@H]3CC1)=C\CC[C@@]1(C)O[C@@H]21	0.753	2.5
Cc1cc(NS(=O)(=O)c2ccc(Nc3c4ccccc4nc4c(C(=O)N5CCN(CCO)CC5)cccc34)cc2)no1		> 100
COc1ccc(C[N+](C)(C)N)cc1OC		> 100
COc1ccc(-c2nc3ccccn3c2/C=C/C(=O)c2cc(OC)c(OC)c(OC)c2)cc1OC	4.86	22.1
CC(C)c1c(O)c(O)c2c(c1O)C(=O)C(O)=C1C(C)(C)CCC[C@@]12C		16.1
NS(=O)(=O)c1ccc(-c2ccc3c(NC(=O)C4CC4)n[nH]c3c2)cc1	> 25	> 25
COc1cc2c3c(n(CCCN)c(=O)c2cc1OC)-c1ccc(C#N)cc1C3=O	17	32.2
O=C1c2ccccc2C(=O)C1(O)c1c[nH]c2ccccc12		> 100
O=C(Nc1cc(Cl)c(Cl)cc1Cl)C(=O)C1C(=O)NC(=S)NC1=O		> 100

What follows are compounds tested on HCT-15 colon (assay: DTP human tumour cell line panel, 48 h).

SMILES	TGI [µM]	GI50 [µM]
OCC1OC(n2cnc3c2NC=NC[C@H]3O)C(Cl)C1O (stereo not given in full)	> 100	
COc1ccc(C2=C(Cl)c3cc(OC)c(OC)cc3C2Cl)cc1 (stereo not given)	30.6	
O=C(/C=C/c1ccc(Cl)c(Cl)c1)c1ccc2ccccc2c1	> 100	
COc1ccc(-c2[nH]c3ccc(OC)cc3c2/C=C(\C#N)S(=O)(=O)c2ccccc2)cc1	> 100	0.614
O=c1cc(NCC(O)CN2CCCC2)n(Cc2ccccc2)c(=O)n1Cc1ccccc1 (stereo not given)	> 100	50.9
c1ccc(Sc2ccc(Cc3nc4cc5ccccc5cc4[nH]3)cc2)cc1	53.9	0.205
CCc1nc2cc(F)c(/C=C/C(=O)NO)cc2c(=O)n1CCc1ccccc1	18.6	0.36
COc1cc(OC)c(C(=O)/C=C/c2cccc(C(F)(F)F)c2)c(OC)c1	2.68	0.942
C/C(=N\Nc1ccc(Cl)cn1)c1ccc2ccccc2n1	> 100	0.64
CC1=C(/C=C/Cl)CC(Cl)C(C)(Cl)C1 (stereo not given)	> 100	
COc1cc2c(cc1OCCCCC(=O)Nc1cc3c4ccccc4ccc3c3ccccc13)N=C[C@@H]1CCCN1C2=O	> 52.6	12.5
COc1c2c(cc3c1OCO3)[C@]13C=C[C@H](OC)C[C@H]1N(C2)CC3O (stereo not given in full)	> 100	
Cc1[nH]c(=O)nc2[nH][nH]c(=O)c12	> 100	
C=C1C(=O)O[C@H]2[C@H]1CC/C(COC(=O)NCCCCNC(=O)OC/C1=C/CC[C@@]3(C)O[C@H]3[C@H]3OC(=O)C(=C)[C@@H]3CC1)=C\CC[C@@]1(C)O[C@@H]21	20.8	5.61
Cc1cc(NS(=O)(=O)c2ccc(Nc3c4ccccc4nc4c(C(=O)N5CCN(CCO)CC5)cccc34)cc2)no1	> 100	
COc1ccc(C[N+](C)(C)N)cc1OC	> 100	> 100
COc1ccc(-c2nc3ccccn3c2/C=C/C(=O)c2cc(OC)c(OC)c(OC)c2)cc1OC	35.1	3.73
CC(C)c1c(O)c(O)c2c(c1O)C(=O)C(O)=C1C(C)(C)CCC[C@@]12C	13.2	
NS(=O)(=O)c1ccc(-c2ccc3c(NC(=O)C4CC4)n[nH]c3c2)cc1	> 25	> 25
COc1cc2c3c(n(CCCN)c(=O)c2cc1OC)-c1ccc(C#N)cc1C3=O	30.6	15.4
O=C1c2ccccc2C(=O)C1(O)c1c[nH]c2ccccc12	> 100	
O=C(Nc1cc(Cl)c(Cl)cc1Cl)C(=O)C1C(=O)NC(=S)NC1=O	> 100	

Each compound was assayed on TK-10 renal (assay: DTP human tumour cell line panel, 48 h).

SMILES	TGI [µM]	GI50 [µM]
OCC1OC(n2cnc3c2NC=NC[C@H]3O)C(Cl)C1O (stereo not given in full)	> 100	
COc1ccc(C2=C(Cl)c3cc(OC)c(OC)cc3C2Cl)cc1 (stereo not given)	47.5	
O=C(/C=C/c1ccc(Cl)c(Cl)c1)c1ccc2ccccc2c1	> 100	
COc1ccc(-c2[nH]c3ccc(OC)cc3c2/C=C(\C#N)S(=O)(=O)c2ccccc2)cc1	> 100	4.56
O=c1cc(NCC(O)CN2CCCC2)n(Cc2ccccc2)c(=O)n1Cc1ccccc1 (stereo not given)	> 100	> 100
c1ccc(Sc2ccc(Cc3nc4cc5ccccc5cc4[nH]3)cc2)cc1	18	0.456
CCc1nc2cc(F)c(/C=C/C(=O)NO)cc2c(=O)n1CCc1ccccc1	0.838	0.256
COc1cc(OC)c(C(=O)/C=C/c2cccc(C(F)(F)F)c2)c(OC)c1	6.01	1.85
C/C(=N\Nc1ccc(Cl)cn1)c1ccc2ccccc2n1	> 100	6.31
CC1=C(/C=C/Cl)CC(Cl)C(C)(Cl)C1 (stereo not given)	> 100	
COc1cc2c(cc1OCCCCC(=O)Nc1cc3c4ccccc4ccc3c3ccccc13)N=C[C@@H]1CCCN1C2=O	5.73	2.33
COc1c2c(cc3c1OCO3)[C@]13C=C[C@H](OC)C[C@H]1N(C2)CC3O (stereo not given in full)	> 100	
Cc1[nH]c(=O)nc2[nH][nH]c(=O)c12	> 100	
C=C1C(=O)O[C@H]2[C@H]1CC/C(COC(=O)NCCCCNC(=O)OC/C1=C/CC[C@@]3(C)O[C@H]3[C@H]3OC(=O)C(=C)[C@@H]3CC1)=C\CC[C@@]1(C)O[C@@H]21	4.12	1.61
Cc1cc(NS(=O)(=O)c2ccc(Nc3c4ccccc4nc4c(C(=O)N5CCN(CCO)CC5)cccc34)cc2)no1	> 100	
COc1ccc(C[N+](C)(C)N)cc1OC	> 100	> 100
COc1ccc(-c2nc3ccccn3c2/C=C/C(=O)c2cc(OC)c(OC)c(OC)c2)cc1OC	8.74	3.28
CC(C)c1c(O)c(O)c2c(c1O)C(=O)C(O)=C1C(C)(C)CCC[C@@]12C	15.1	
NS(=O)(=O)c1ccc(-c2ccc3c(NC(=O)C4CC4)n[nH]c3c2)cc1	> 25	> 25
COc1cc2c3c(n(CCCN)c(=O)c2cc1OC)-c1ccc(C#N)cc1C3=O	41.3	16.9
O=C1c2ccccc2C(=O)C1(O)c1c[nH]c2ccccc12	> 100	
O=C(Nc1cc(Cl)c(Cl)cc1Cl)C(=O)C1C(=O)NC(=S)NC1=O	> 100	
